Patent US20070197590A1, “SUBSTITUTED DIPIPERIDINE CCR2 ANTAGONISTS” (priority 2006, published 2007)
pIC50: −log10 of the molar value.

Columns and labels:
[1] = test system: MCP-1 induced chemotaxis of THP-1 cells; assay: MCP-1 Induced Chemotaxis in THP-1 Cells; assay type: cell-based; conditions: Homo sapiens, MCP-1 0.01 μg/mL, 3 hours at 37° C., read-out: Inhibition of MCP-1 Induced Chemotaxis IC50
Description: MCP-1 induced chemotaxis was run in a 24-well chemotaxis chamber. MCP-1 (0.01 μg/mL) was added to the lower chamber and 100 μL of THP-1 cells (1×10^7 cell/mL) was added to the top chamber. Varying concentrations of test compound were added to the top and bottom chambers. Cells were allowed to chemotax for 3 hours at 37° C. and 5% CO2. An aliquot of the cells that had migrated to the bottom chamber was taken and counted then compared to vehicle.
Table 3 lists IC50 values for inhibition of MCP-1 induced chemotaxis.

CCR2 = target: T1, CCR2 (Homo sapiens, UniProt P41597); assay: MCP-1 Receptor Binding Assay in THP-1 Cells; conditions: for pIC50: THP-1 cells, 0.5 nM 125I labeled MCP-1, 2 hours at 30° C., read-out: Inhibition of MCP-1 Binding IC50; for inhibition at 25 µM: test concentration of 25 μM, given where an IC50 value was not obtained, read-out: Inhibition of MCP-1 Binding, percent inhibition
T1 construct: host or cells: THP-1 cells
T1 sequence (P41597 1-360 isoform P41597-2): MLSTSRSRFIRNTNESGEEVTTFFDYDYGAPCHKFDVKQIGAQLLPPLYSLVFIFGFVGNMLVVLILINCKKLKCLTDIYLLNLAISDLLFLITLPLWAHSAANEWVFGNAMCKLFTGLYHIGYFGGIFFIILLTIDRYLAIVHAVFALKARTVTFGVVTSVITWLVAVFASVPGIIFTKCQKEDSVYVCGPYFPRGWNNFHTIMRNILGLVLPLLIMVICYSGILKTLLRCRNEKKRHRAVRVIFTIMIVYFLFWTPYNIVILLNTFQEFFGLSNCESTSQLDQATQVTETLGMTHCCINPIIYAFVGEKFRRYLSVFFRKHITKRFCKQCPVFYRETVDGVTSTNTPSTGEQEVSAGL
Method in brief: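 Whole THP-1 cells incubated 2 h at 30° C with 0.5 nM 125I-MCP-1 and varying compound concentrations; bound radioactivity harvested on filters and counted by scintillation. Nonspecific binding with 1 μM cold MCP-1; IC50 for inhibition of binding versus vehicle.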

[2] = test system: MCP-1 induced calcium ion influx in THP-1 cells; assay: MCP-1 Induced Calcium Mobilization in THP-1 Cells; assay type: cell-based; conditions: Homo sapiens; for pIC50: THP-1, THP-1 cells, 0.2 μM MCP-1, FLIPR, read-out: Inhibition of MCP-1 Induced Calcium Ion Influx IC50; for inhibition at 25 µM: THP-1, test concentration of 25 μM, given where an IC50 value was not obtained, read-out: Inhibition of MCP-1 Induced Calcium Ion Influx, percent inhibition
Description: THP-1 cells were plated at a density of 8×10^5 cells/mL (100 μL/well) into poly-D lysine coated clear bottom, black 96 well plates. The cells were loaded with 5 μM fluo-3 for 45 minutes. The fluo-3 washed off and cells were incubated with varying concentrations of test compound for 15 minutes. The change in calcium ion concentration upon addition of 0.2 μM MCP-1 was determined using FLIPR and compared to vehicle.
Table 2 lists IC50 values for inhibition of MCP-1 induced influx of calcium ions.

| Structure (SMILES) | pIC50 [1] | pIC50 (CCR2) | pIC50 [2] | inhibition at 25 µM [2] [%] | inhibition at 25 µM (CCR2) [%] |
| --- | --- | --- | --- | --- | --- |
| COc1ccc(C2CCN(CC(O)C3(O)CCN(C(=O)/C=C/c4ccc(Cl)c(Cl)c4)CC3)CC2)cc1 (stereo not shown) [Compound 1] | 7.05 | 6.60 | 7.15 | – | – |
| O=C(Nc1ccc(Cl)c(Cl)c1)N1CCC(C(O)CN2CCC(c3c[nH]c4ccccc34)CC2)CC1 (stereo not shown) [Compound 4, 4-{1-hydroxy-2-[4-(1H-indol-3-yl)-piperidin-1-yl]-ethyl}-piperidine-1-carboxylic acid (3,4-dichloro-phenyl)-amide] | 8.40 | 7.52 | 7.70 | – | – |
| O=C(Nc1cc(F)cc(F)c1)N1CCC(C(O)CN2CCC(c3c[nH]c4ccccc34)CC2)CC1 (stereo not shown) [Compound 5, 4-{1-hydroxy-2-[4-(1H-indol-3-yl)-piperidin-1-yl]-ethyl}-piperidine-1-carboxylic acid (3,5-difluoro-phenyl)-amide] | 6.92 | 6.80 | 7.10 | – | – |
| O=C(/C=C/c1ccc(Cl)c(Cl)c1)N1CCC(C(O)CN2CCC(c3c[nH]c4ccccc34)CC2)CC1 (stereo not shown) [Compound 6] | 7.70 | 7.40 | 8.15 | – | – |
| O=C(/C=C/c1cc(F)cc(F)c1)N1CCC(C(O)CN2CCC(c3c[nH]c4ccccc34)CC2)CC1 (stereo not shown) [Compound 7] | 7.52 | 7.52 | 8.15 | – | – |
| OC(CN1CCC(c2c[nH]c3ccccc23)CC1)C1CCN(C(=S)Nc2cccc(Br)c2)CC1 (stereo not shown) [Compound 9, 4-{1-hydroxy-2-[4-(1H-indol-3-yl)-piperidin-1-yl]-ethyl}-piperidine-1-carbothioic acid (3-bromo-phenyl)-amide] | 7.70 | 7.30 | 6.92 | – | – |
| N=C(NC(=O)c1cc(F)cc(F)c1)N1CCC(C(O)CN2CCC(c3c[nH]c4ccccc34)CC2)CC1 (stereo not shown) [Compound 10, 3,5-difluoro-N-[(4-{1-hydroxy-2-[4-(1H-indol-3-yl)-piperidin-1-yl]-ethyl}-piperidin-1-yl)-imino-methyl]-benzamide] | 6.57 | 6.82 | 6.40 | – | – |
| Cc1cccc(/C=C/C(=O)N2CCC(C(O)CN3CCC(c4c[nH]c5ccccc45)CC3)CC2)c1 (stereo not shown) [Compound 11] | 6.72 | 8.00 | 6.46 | – | – |
| COc1ccc(C2CCN(CC(O)C3CCN(C(=O)/C=C/c4cc(F)cc(F)c4)CC3)CC2)cc1 (stereo not shown) [Compound 12] | 8.15 | 7.70 | 6.19 | – | – |
| COc1ccc(C2CCN(CC(O)C3CCN(C(=O)/C=C/c4cc(F)c(F)c(F)c4)CC3)CC2)cc1 (stereo not shown) [Compound 13] | 7.22 | 8.00 | 6.62 | – | – |
| COc1ccc(C2CCN(CC(O)C3CCN(C(=O)/C=C/c4ccc(Cl)c(Cl)c4)CC3)CC2)cc1 (stereo not shown) [Compound 14] | 6.82 | 6.85 | 8.52 | – | – |
| COc1ccc(C2CCN(CC(O)C3CCN(C(=O)Nc4ccc(Cl)c(Cl)c4)CC3)CC2)cc1 (stereo not shown) [Compound 15, 4-{1-hydroxy-2-[4-(4-methoxy-phenyl)-piperidin-1-yl]-ethyl}-piperidine-1-carboxylic acid (3,4-dichloro-phenyl)-amide] | 7.70 | 7.52 | 6.96 | – | – |
| COc1ccc(C2CCN(CC(O)C3CCN(C(=S)Nc4cccc(Br)c4)CC3)CC2)cc1 (stereo not shown) [Compound 16, 4-{1-hydroxy-2-[4-(4-methoxy-phenyl)-piperidin-1-yl]-ethyl}-piperidine-1-carbothioic acid (3-bromo-phenyl)-amide] | 6.52 | 6.89 | 6.01 | – | – |
| CS(=O)(=O)Nc1ccc2[nH]cc(C3CCN(CC(=O)C4CCN(C(=O)C=Cc5cc(F)c(F)c(F)c5)CC4)CC3)c2c1 [Compound 18, N-{3-[1-(2-oxo-2-{1-[3-(3,4,5-trifluoro-phenyl)-acryloyl]-piperidin-4-yl}-ethyl)-piperidin-4-yl]-1H-indol-5-yl}-methanesulfonamide] | 6.38 | 6.17 | 5.77 | – | – |
| Cc1cccc(/C=C/C(=O)N2CCC(C(O)CN3CCC(c4c[nH]c5ncccc45)CC3)CC2)c1 (stereo not shown) [Compound 19] | 6.72 | 6.89 | 7.52 | – | – |
| O=C(/C=C/c1cc(F)cc(F)c1)N1CCC(C(O)CN2CCC(c3c[nH]c4ncccc34)CC2)CC1 (stereo not shown) [Compound 20] | 7.70 | 7.30 | 6.64 | – | – |

| Structure (SMILES) | pIC50 [1] | pIC50 (CCR2) | pIC50 [2] | inhibition at 25 µM [2] [%] | inhibition at 25 µM (CCR2) [%] |
| --- | --- | --- | --- | --- | --- |
| O=C(/C=C/c1cc(F)c(F)c(F)c1)N1CCC(C(O)CN2CCC(c3c[nH]c4ncccc34)CC2)CC1 (stereo not shown) [Compound 21] | 7.70 | 7.30 | 6.32 | – | – |
| O=C(/C=C/c1cccc(C(F)(F)F)c1)N1CCC(C(O)CN2CCC(c3c[nH]c4ncccc34)CC2)CC1 (stereo not shown) [Compound 22] | 6.44 | 6.72 | 7.52 | – | – |
| O=C(/C=C/c1ccc(Cl)c(Cl)c1)N1CCC(C(O)CN2CCC(c3c[nH]c4ncccc34)CC2)CC1 (stereo not shown) [Compound 23] | 7.70 | 7.70 | 8.15 | – | – |
| O=C(Nc1ccc(Cl)c(Cl)c1)N1CCC(C(O)CN2CCC(c3c[nH]c4ncccc34)CC2)CC1 (stereo not shown) [Compound 24, 4-{1-hydroxy-2-[4-(1H-pyrrolo[2,3-b]pyridin-3-yl)-piperidin-1-yl]-ethyl}-piperidine-1-carboxylic acid (3,4-dichloro-phenyl)-amide] | 7.15 | 7.15 | 6.92 | – | – |
| CSc1ccc(NC(=O)N2CCC(C(O)CN3CCC(c4c[nH]c5ncccc45)CC3)CC2)cc1 (stereo not shown) [Compound 25, 4-{1-hydroxy-2-[4-(1H-pyrrolo[2,3-b]pyridin-3-yl)-piperidin-1-yl]-ethyl}-piperidine-1-carboxylic acid (4-methylsulfanyl-phenyl)-amide] | 6.19 | 6.09 | 5.82 | – | – |
| COc1ccc2[nH]cc(C3CCN(CC(O)C4CCN(C(=O)/C=C/c5cc(F)cc(F)c5)CC4)CC3)c2c1 (stereo not shown) [Compound 26] | 7.70 | 7.15 | 6.43 | – | – |
| CS(=O)(=O)Nc1ccc2[nH]cc(C3CCN(CC(O)C4CCN(C(=O)/C=C/c5cc(F)c(F)c(F)c5)CC4)CC3)c2c1 (stereo not shown) [Compound 27] | 8.00 | 8.00 | 8.10 | – | – |
| O=C(/C=C/c1ccc(F)c(F)c1)N1CCC(O)(C(O)CN2CCC(c3c[nH]c4ccc(N5CCOCC5)cc34)CC2)CC1 (stereo not shown) [Compound 172] | – | 5.43 | – | 46 | – |
| O=C(/C=C/c1ccc(F)c(Br)c1)N1CCC(O)(C(O)CN2CCC(c3c[nH]c4ccc(N5CCOCC5)cc34)CC2)CC1 (stereo not shown) [Compound 173] | – | 6.04 | 5.92 | – | – |
| Cc1cccc(/C=C/C(=O)N2CCC(O)(C(O)CN3CCC(c4c[nH]c5ccc(N6CCOCC6)cc45)CC3)CC2)c1 (stereo not shown) [Compound 174] | – | 5.49 | – | 44 | – |
| O=C(/C=C/c1cc(F)c(F)cc1F)N1CCC(O)(C(O)CN2CCC(c3c[nH]c4ccc(N5CCOCC5)cc34)CC2)CC1 (stereo not shown) [Compound 175] | – | – | – | 24 | 70 |
| COc1cccc(/C=C/C(=O)N2CCC(O)(C(O)CN3CCC(c4c[nH]c5ccc(N6CCOCC6)cc45)CC3)CC2)c1 (stereo not shown) [Compound 177] | – | – | – | 27 | 53 |
| O=C(/C=C/c1ccsc1)N1CCC(O)(C(O)CN2CCC(c3c[nH]c4ccc(N5CCOCC5)cc34)CC2)CC1 (stereo not shown) [Compound 178] | – | – | – | 2 | 59 |
| OC(CN1CCC(c2c[nH]c3ccc(N4CCOCC4)cc23)CC1)C1(O)CCN(C(=S)Nc2cc(Cl)cc(Cl)c2)CC1 (stereo not shown) [Compound 182, 4-hydroxy-4-{1-hydroxy-2-[4-(5-morpholin-4-yl-1H-indol-3-yl)-piperidin-1-yl]-ethyl}-piperidine-1-carbothioic acid (3,5-dichloro-phenyl)-amide] | – | 5.31 | 5.27 | – | – |
| CC(=O)Nc1ccc2[nH]cc(C3CCN(CC(O)C4CCN(C(=O)OCc5ccccc5)CC4)CC3)c2c1 (stereo not shown) [Compound 184, 4-{2-[4-(5-acetylamino-1H-indol-3-yl)-piperidin-1-yl]-1-hydroxy-ethyl}-piperidine-1-carboxylic acid benzyl ester] | – | – | – | 13 | 61 |
